The values that follow come from US9834541B2, “2-aminopyridine compounds” (Merck Patent GmbH, priority 2012, dated 2017).

A value given as a limit tells only on which side of the number the result lay.

For series [1], the system named is Wnt pathway. Description: Cellular assay for Wnt pathway activity, LS174T-shl-fLuc clone 5 (LS174T-L5) luciferase reporter assay. Particulars: Homo sapiens; LS174T TCF luciferase reporter cells, 24 hours incubation. The class given is cell-based. In a few lines:
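LS174T human colon cancer cells stably carrying a 16×TCF/LEF-driven short-half-life firefly luciferase reporter were treated with compounds at 30 μM to 1 nM for 24 hours. Luciferase luminescence normalized to vehicle control; IC50 from curve fitting.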
(In general: A reporter such as luciferase makes a cellular process visible.)

A short description of series [2]: CLint (intrinsic clearance) assay, liver microsomal incubation. The class given is in vitro ADME, human. The note with it: for microsomal CLint at 0.8 μM: liver microsomes, pH 7.4, human hepatic microsomes, 0.5 mg/mL protein, class symbols. In a few lines: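 Human liver microsomes (0.5 mg/mL protein) in 0.1 M potassium phosphate pH 7.4 with 1 mM MgCl2 were incubated at 37 °C with NADPH and compound (diluted to 0.8 μM), with no-cofactor controls. Samples were acetonitrile-quenched at 0–30 min. CLint (μL/min/mg protein) = k·1000/protein concentration, from the LC-MS/MS peak-area decline slope.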

Series [3] concerns Wnt pathway. The note with it: see Table A on page 93 of WO 2010/041054; cited from earlier work.

`Nc1ncc(-c2ccc3c(c2)CCS3(=O)=O)c(N2CCC3(CCNC3=O)CC2)c1Cl` [Compound 62, 8-[2-Amino-3-chloro-5-(1,1-dioxo-2,3-dihydro-1H-1I6-benzo[b]thiophen-5-yl)-pyridin-4-yl]-2,8-diaza-spiro[4.5] decan-1-one]: the IC50 (in general, the midpoint of a concentration-inhibition curve) in series [1] turned out to be 450 nM. The microsomal CLint (commonly a measure of how fast metabolising enzymes remove a compound, apart from limits set by blood flow) at 0.8 μM in series [2] lay within 10 to 50 µL/min/mg.
The like results for `Cn1cc(-c2ccc(-c3cnc(N)c(F)c3N3CCC4(CC3)CNC(=O)O4)cc2)cn1` [Compound 63, 8-{2-Amino-3-fluoro-5-[4-(1-methyl-1H-pyrazol-4-yl)-phenyl]-pyridin-4-yl}-1-oxa-3,8-diaza-spiro[4.5] decan-2-one] were, in that order, 237 nM and 10 to 50 µL/min/mg.
The like results for `Cn1ncc2cc(-c3cnc(N)c(F)c3N3CCC4(CCNC4=O)CC3)ccc21` [Compound 64, 8-[2-Amino-3-fluoro-5-(1-methyl-1H-indazol-5-yl)-pyridin-4-yl]-2,8-diaza-spiro[4.5] decan-1-one] were, in that order, 644 nM and 10 to 50 µL/min/mg.
In turn, `CN1c2ccc(-c3cnc(N)c(Cl)c3N3CC[C@H](C#N)[C@@H](O)C3)cc2CS1(=O)=O` [Compound 65, (3R,4R)-2′-Amino-3′-chloro-3-hydroxy-5′-(1-methyl-2,2-dioxo-2,3-dihydro-1H-2I6-benzo[c]isothiazol-5-yl)-3,4,5,6-tetrahydro-2H-[1,4′] bipyridinyl-4-carbonitrile] returned an IC50 in series [1] of 14 nM. The microsomal CLint at 0.8 μM in series [2] was in the range of 10 to 50 µL/min/mg.
As for `CN1c2ccc(-c3cnc(N)c(Cl)c3N3CC[C@@H](C#N)[C@H](O)C3)cc2CS1(=O)=O` [Compound 66, (3S,4S)-2′-Amino-3′-chloro-3-hydroxy-5′-(1-methyl-2,2-dioxo-2,3-dihydro-1H-2I6-benzo[c]isothiazol-5-yl)-3,4,5,6-tetrahydro-2H-[1,4′] bipyridinyl-4-carbonitrile], the IC50 in series [1] is 403 nM. Besides, the microsomal CLint at 0.8 μM in series [2] was 10 to 50 µL/min/mg.
The like results for `CC(C)(O)Cn1cc(-c2ccc(-c3cnc(N)c(Cl)c3N3CCC4(CCNC4=O)CC3)cc2)cn1` [Compound 67, 8-(2-Amino-3-chloro-5-{4-[1-(2-hydroxy-2-methyl-propyl)-1H-pyrazol-4-yl]-phenyl}-pyridin-4-yl)-2,8-diaza-spiro[4.5] decan-1-one] were, in that order, 49 nM and 10 to 50 µL/min/mg.
Consider `CCN1Cc2cc(-c3cnc(N)c(Cl)c3N3CCC4(CCNC4=O)CC3)ccc2S1(=O)=O` [Compound 68, 8-[2-Amino-3-chloro-5-(2-ethyl-1,1-dioxo-2,3-dihydro-1H-1l6-benzo[d]isothiazol-5-yl)-pyridin-4-yl]-2,8-diaza-spiro[4.5]decan-1-one], for which the midpoint of inhibition in series [1], the IC50, lay at 59 nM. Besides, in series [2], the microsomal CLint at 0.8 μM is less than 10 µL/min/mg.
The like results for `CC(C)n1cc(-c2ccc(-c3cnc(N)c(Cl)c3N3CCC4(CCNC4=O)CC3)cc2)cn1` [Compound 69, 8-{2-Amino-3-chloro-5-[4-(1-isopropyl-1H-pyrazol-4-yl)-phenyl]-pyridin-4-yl}-2,8-diaza-spiro[4.5] decan-1-one] were, in that order, 52 nM and 50 to 100 µL/min/mg.
The like results for `CCn1cc(-c2ccc(-c3cnc(N)c(Cl)c3N3CCC4(CCNC4=O)CC3)cc2)cn1` [Compound 70, 8-{2-Amino-3-chloro-5-[4-(1-ethyl-1H-pyrazol-4-yl)-phenyl]-pyridin-4-yl}-2,8-diaza-spiro[4.5] decan-1-one] were, in that order, 23 nM and not below 150 µL/min/mg.
The like results for `CCn1ncc2ccc(-c3cnc(N)c(Cl)c3N3CCC4(CCNC4=O)CC3)cc21` [Compound 71, 8-[2-Amino-3-chloro-5-(1-ethyl-1H-indazol-6-yl)-pyridin-4-yl]-2,8-diaza-spiro[4.5] decan-1-one] were, in that order, 181 nM and 10 to 50 µL/min/mg.
As to `CCn1ncc2cc(-c3cnc(N)c(Cl)c3N3CCC4(CCNC4=O)CC3)ccc21` [Compound 72, 8-[2-Amino-3-chloro-5-(1-ethyl-1H-indazol-5-yl)-pyridin-4-yl]-2,8-diaza-spiro[4.5] decan-1-one], the half-inhibitory concentration (IC50) in series [1] stood at 155 nM. The microsomal CLint at 0.8 μM in series [2] lay in the range of 100 to 150 µL/min/mg.
For `CC(C)n1ncc2ccc(-c3cnc(N)c(Cl)c3N3CCC4(CCNC4=O)CC3)cc21` [Compound 73, 8-[2-Amino-3-chloro-5-(1-isopropyl-1H-indazol-6-yl)-pyridin-4-yl]-2,8-diaza-spiro[4.5] decan-1-one], the midpoint of inhibition in series [1], the IC50, lay at 54 nM. In series [2], the microsomal CLint at 0.8 μM fell in the range of 100 to 150 µL/min/mg.
Consider `O=C1NCCC12CCN(c1c(Cl)cncc1-c1ccccc1)CC2` [Compound E60, 8-(3-Chloro-5-phenyl-pyridin-4-yl)-2,8-diaza-spiro[4.5]decan-1-one, reference compound], for which the “inhibitory activity, in words” value in series [3] is given as “promising”. This molecule also displayed an IC50 in series [1] of 230 nM. In addition, the microsomal CLint at 0.8 μM in series [2] was not below 150 µL/min/mg. Also, the “human hepatic microsomal intrinsic clearance (CLint), in words” value in series [2] (statement in the related-art section) is recorded as “high”.
